From patent US7323466B2, “Morpholine derivatives as 5HT2C receptor agonists for the treatment of obesity” (Hoffman-La Roche Inc., priority 2005, dated 2008) come the findings set out here.

Structures are written as SMILES. Read-outs that look alike come from different tables or passages of the source.

Assay [1] concerns the target T1, human 5-HT2B receptors (Homo sapiens, UniProt P41595).
T1 construct: expressed in transfected cells; host or cells: CHO cell line
As to the kind of experiment: Binding to the 5-HT2B receptor, [3H]-5-HT, CHO cell line (Method (b)). As to the method: (§1) The binding of compounds of formula (I) to serotonin receptors was determined in vitro by standard methods. The preparations were investigated in accordance with the assays given hereinafter.
Method (b): For the binding to the 5-HT2B receptor the 5-HT2B receptors were radiolabeled with [^3H]-5-HT. The affinity of the compounds for human 5-HT2B receptors in a CHO cell line was determined according to the procedure of K. Schmuck, C. Ullmer, P. Engels and H. Lubbert, FEBS Lett., 1994, 342, 85-90.

Assay [2] has as its target T2, 5-HT2C receptor (Homo sapiens, UniProt P28335).
T2 sequence (P28335 33-458): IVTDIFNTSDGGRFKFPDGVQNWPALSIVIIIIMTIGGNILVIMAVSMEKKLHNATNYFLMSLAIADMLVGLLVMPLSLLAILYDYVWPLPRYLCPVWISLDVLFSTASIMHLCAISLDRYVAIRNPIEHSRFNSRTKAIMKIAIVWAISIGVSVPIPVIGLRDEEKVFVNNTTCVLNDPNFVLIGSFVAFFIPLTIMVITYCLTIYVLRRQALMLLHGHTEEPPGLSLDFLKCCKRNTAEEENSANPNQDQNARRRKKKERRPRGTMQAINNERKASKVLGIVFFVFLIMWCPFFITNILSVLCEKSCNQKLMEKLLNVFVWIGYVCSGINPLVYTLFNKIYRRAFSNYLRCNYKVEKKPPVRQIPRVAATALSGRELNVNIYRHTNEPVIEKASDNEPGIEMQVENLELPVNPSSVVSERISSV
As to the kind of experiment: Functional activity, FLIPR calcium assay, CHO cells expressing human 5-HT2C. The assay is classed as cell-based. More on the design: expressed in transfected cells; host or cells: CHO cells. As to conditions: for h5-HT2C Rel. Eff.: maximum fluorescent signal relative to 10 μM 5-HT (defined as 100%). As to the method: (§2) The functional activity of compounds of formula (I) was assayed using a Fluorimetric Imaging Plate Reader (FLIPR). CHO cells expressing the human 5-HT2C or human 5-HT2A receptors were counted and plated into standard 96 well microtitre plates on the day before testing to give a confluent monolayer. The cells were then loaded with the calcium sensitive dye, Fluo-3-AM. Unincorporated dye was removed using an automated cell washer to leave a total volume of 100 μL/well of assay buffer (Hanks balanced salt solution containing 20 mM Hepes and 2.5 mM probenecid). The drug (dissolved in 50 μL of the assay buffer) was added at a rate of 70 μL/sec to each well of the FLIPR 96 well plate during fluorescence measurements. The measurements were taken at 1 sec intervals and the maximum fluorescent signal was measured (approx 10-15 secs after drug addition) and compared with the response produced by 10 μM 5-HT (defined as 100%) to which it was expressed as a percentage response (relative efficacy). Dose response curves were constructed using Graphpad Prism (Graph Software Inc.).

Assay [3] addresses T3, 5-HT2A receptor (Homo sapiens, UniProt P28223). As to the kind of experiment: Functional activity, FLIPR calcium assay, CHO cells expressing human 5-HT2A. The note with it: for EC50: FLIPR, CHO cells, Fluo-3-AM, read-out: h5-HT2A EC50; for h5-HT2A Rel. Eff.: maximum fluorescent signal relative to 10 μM 5-HT (defined as 100%). More on the design: expressed in transfected cells; host or cells: CHO cells. In kind it is cell-based. As to the method: as §2

For assay [4], the target named is T2, 5-HT2C receptor. Put plainly: Binding to the 5-HT2C receptor, [3H]-5-HT, CHO cell line (Method (a)). On the set-up: expressed in transfected cells; host or cells: CHO cell line. As to the method:
as §1
Method (a): For the binding to the 5-HT2C receptor the 5-HT2C receptors were radiolabeled with [^3H]-5-HT. The affinity of the compounds for 5-HT2C receptors in a CHO cell line was determined according to the procedure of D. Hoyer, G. Engel and H. O. Kalkman, European J. Pharmacol., 1985, 118, 13-23.

The target of assay [5] is T3, 5-HT2A receptor. Put plainly: Binding to the 5-HT2A receptor, [125I]-DOI, CHO cell line (Method (c)). On the set-up: expressed in transfected cells; host or cells: CHO cell line. The procedure:
as §1
Method (c): For the binding to the 5-HT2A receptor the 5-HT2A receptors were radiolabeled with [^125I]-DOI. The affinity of the compounds for 5-HT2A receptors in a CHO cell line was determined according to the procedure of D. J. McKenna and S. J. Peroutka, J. Neurosci., 1989, 9, 3482-90.

The mark [6] stands for this setting: Method (b), [3H]-5-HT, human 5-HT2B, CHO cell line, read-out: Ki (2B).
Setting [7] is: FLIPR, CHO cells, Fluo-3-AM, read-out: h5-HT2C EC50.
Setting [8] is: Method (a), [3H]-5-HT, CHO cell line, read-out: Ki (2C).
Setting [9] is: Method (c), [125I]-DOI, CHO cell line, read-out: Ki (2A).

T3 sequence (P28223 whole entry): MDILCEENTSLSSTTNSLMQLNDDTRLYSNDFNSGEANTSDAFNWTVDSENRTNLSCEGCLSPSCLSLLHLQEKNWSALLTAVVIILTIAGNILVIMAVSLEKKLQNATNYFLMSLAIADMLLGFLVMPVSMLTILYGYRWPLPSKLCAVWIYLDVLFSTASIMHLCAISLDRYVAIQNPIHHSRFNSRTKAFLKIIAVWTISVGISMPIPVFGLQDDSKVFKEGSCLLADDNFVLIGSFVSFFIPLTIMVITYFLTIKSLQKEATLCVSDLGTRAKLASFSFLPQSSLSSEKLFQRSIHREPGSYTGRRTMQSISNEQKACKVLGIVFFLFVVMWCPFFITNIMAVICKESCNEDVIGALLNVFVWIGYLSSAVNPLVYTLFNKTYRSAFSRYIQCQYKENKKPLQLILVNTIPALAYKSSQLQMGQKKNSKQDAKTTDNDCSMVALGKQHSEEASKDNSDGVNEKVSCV
T1 sequence (P41595 whole entry): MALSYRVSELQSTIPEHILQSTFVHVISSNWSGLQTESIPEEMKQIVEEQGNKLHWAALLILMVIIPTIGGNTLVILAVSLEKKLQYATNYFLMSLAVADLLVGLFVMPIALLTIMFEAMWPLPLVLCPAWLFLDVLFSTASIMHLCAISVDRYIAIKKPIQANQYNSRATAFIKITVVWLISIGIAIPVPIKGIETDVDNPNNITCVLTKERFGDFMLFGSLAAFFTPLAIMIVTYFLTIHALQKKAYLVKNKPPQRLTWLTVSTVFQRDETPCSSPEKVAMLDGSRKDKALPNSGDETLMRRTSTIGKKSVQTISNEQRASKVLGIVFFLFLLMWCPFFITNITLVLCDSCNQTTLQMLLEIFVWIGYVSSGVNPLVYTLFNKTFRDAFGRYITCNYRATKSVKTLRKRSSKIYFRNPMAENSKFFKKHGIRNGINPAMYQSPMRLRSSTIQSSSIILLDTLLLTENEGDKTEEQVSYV

Consider `COc1c(C)cc(C[C@@H]2CNCCO2)cc1Br` [Example 46, (R)-2-(3-bromo-4-methoxy-5-methyl-benzyl)morpholine], for which the Ki in assay [1] (setting [6]) is above 10000 nM; in assay [4] (setting [8]) it was 82 nM; in assay [5] (setting [9]), 641 nM. Also, the EC50 in assay [2] (setting [7]) is 53 nM; in assay [3] it was above 3000 nM. Besides, the “h5-HT2C Rel. Eff.” value in assay [2] was 94%. In assay [3], the “h5-HT2A Rel. Eff.” value was found to be 21%.
On to `FC(F)(F)c1cccc(C[C@@H]2CNCCO2)c1` [Example 14, (R)-2-(3-trifluoromethyl)benzylmorpholine], for which the Ki in assay [1] (setting [6]) is 55 nM; in assay [4] (setting [8]), 10 nM; in assay [5] (setting [9]), 89 nM. In addition, the values for the EC50 in assay [2] (setting [7]) and in assay [3] were 7 nM and 511 nM, respectively. Also, the “h5-HT2C Rel. Eff.” value in assay [2] was 97%. For the same molecule, in assay [3], the “h5-HT2A Rel. Eff.” value turned out to be 47%.
With `c1ccc(C[C@@H]2CNCCO2)cc1` [reference compound], the values for the inhibition constant (Ki) in assay [1], in assay [4] and in assay [5] were above 10000 nM, 169 nM and above 10000 nM, respectively. Also, the EC50 in assay [2] and in assay [3] was above 3000 nM each time. Moreover, the “h5-HT2C Rel. Eff.” value in assay [2] came out at 41%. For the same molecule, in assay [3], the “h5-HT2A Rel. Eff.” value worked out at 2%.
